Experiments:
Type in all cases: cell-based
[1] = biological target: T1, serotonin transporter (Homo sapiens, UniProt P31645); assay: Serotonin reuptake inhibition in transporter-transfected HEK-293 cells ([3H]-5-HT); conditions: for Triple reuptake inhibition (Ratio %) SERT: compound 1 μM, [3H]-5-HT, relative to control without compound (100%), lower = more inhibition; for IC50: concentration at which Ratio % is 50%, 6 concentrations 1 nM to 1 μM, read-out: Triple reuptake inhibition (IC50, μM) SERT
T1 construct: expressed in transfected cells; host or cells: HEK-293
T1 sequence (P31645 whole entry): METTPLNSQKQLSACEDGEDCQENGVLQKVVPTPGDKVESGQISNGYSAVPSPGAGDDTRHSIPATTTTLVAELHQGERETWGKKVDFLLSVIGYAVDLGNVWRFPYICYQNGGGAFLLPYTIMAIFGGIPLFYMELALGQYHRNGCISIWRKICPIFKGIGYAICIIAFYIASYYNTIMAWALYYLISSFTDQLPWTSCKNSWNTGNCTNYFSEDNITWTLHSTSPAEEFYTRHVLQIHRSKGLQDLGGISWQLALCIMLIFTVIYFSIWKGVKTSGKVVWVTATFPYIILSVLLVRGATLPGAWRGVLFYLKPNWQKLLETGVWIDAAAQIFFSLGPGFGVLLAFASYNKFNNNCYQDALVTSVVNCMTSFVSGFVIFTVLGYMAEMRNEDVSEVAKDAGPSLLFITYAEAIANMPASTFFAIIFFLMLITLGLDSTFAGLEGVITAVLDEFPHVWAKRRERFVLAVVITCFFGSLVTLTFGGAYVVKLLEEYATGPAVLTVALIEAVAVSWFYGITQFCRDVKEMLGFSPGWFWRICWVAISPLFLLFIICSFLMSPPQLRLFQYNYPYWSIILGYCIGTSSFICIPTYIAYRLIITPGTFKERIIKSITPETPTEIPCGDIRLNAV
Experimental: (§1) To evaluate the reuptake inhibitory effect on dopamine, the dopamine transporter cDNA was transfected using the HEK-293 cell line, and then sub-seeded in a 24 well plate the next day. After removing the medium, each compound of the Examples or Comparative Examples diluted to 1 μM in uptake buffer was added to a concentration of 200 μl/well and cultured at 37° C. for 15 minutes. 100 μl of uptake buffer containing 20-30 nM [3H]-DA was added and cultured at 37° C. for 5 minutes. The reaction solution was quickly removed and washed three times with 1 ml ice-cold uptake buffer. After dissolving the resultant in 1% SDS (0.5 ml), the degree of binding of radioisotope-labeled dopamine to the transporter was measured.
(§2) For norepinephrine (NE) and serotonin (5-HT), the degree of binding of radioisotope-labeled norepinephrine or serotonin to the transporter was measured in the same manner as above, except that cells transfected with NE or 5-HT transporter cDNA were used and [3H]-NE or [3H]-5-HT was used as a substrate.
(§3) In addition, when evaluating the reuptake inhibitory effect on dopamine, norepinephrine, and serotonin, the same method was performed without treating each compound of the Examples or Comparative Examples as a control, the degree of binding of radioisotope-labeled dopamine, norepinephrine, and serotonin to the transporter was measured, and by using this as a standard (100%), the triple reuptake inhibitory effect was evaluated as a relative ratio (Ratio %). That is, in the control group, the binding of dopamine, norepinephrine, and serotonin to transporters is not inhibited, but when each compound of the Examples is treated and thus the binding is inhibited, the Patio % value decreases.
In addition, in the case of the compound of Comparative Example 1, IC50 was obtained by the same method as the Example Compounds.

[2] = biological target: T2, norepinephrine transporter (Homo sapiens, UniProt P23975); assay: Norepinephrine reuptake inhibition in transporter-transfected HEK-293 cells ([3H]-NE); conditions: for Triple reuptake inhibition (Ratio %) NET: compound 1 μM, [3H]-NE, relative to control without compound (100%), lower = more inhibition; for IC50: concentration at which Ratio % is 50%, 6 concentrations 1 nM to 1 μM, read-out: Triple reuptake inhibition (IC50, μM) NET
T2 construct: expressed in transfected cells; host or cells: HEK-293
T2 sequence (P23975 whole entry, species assumed): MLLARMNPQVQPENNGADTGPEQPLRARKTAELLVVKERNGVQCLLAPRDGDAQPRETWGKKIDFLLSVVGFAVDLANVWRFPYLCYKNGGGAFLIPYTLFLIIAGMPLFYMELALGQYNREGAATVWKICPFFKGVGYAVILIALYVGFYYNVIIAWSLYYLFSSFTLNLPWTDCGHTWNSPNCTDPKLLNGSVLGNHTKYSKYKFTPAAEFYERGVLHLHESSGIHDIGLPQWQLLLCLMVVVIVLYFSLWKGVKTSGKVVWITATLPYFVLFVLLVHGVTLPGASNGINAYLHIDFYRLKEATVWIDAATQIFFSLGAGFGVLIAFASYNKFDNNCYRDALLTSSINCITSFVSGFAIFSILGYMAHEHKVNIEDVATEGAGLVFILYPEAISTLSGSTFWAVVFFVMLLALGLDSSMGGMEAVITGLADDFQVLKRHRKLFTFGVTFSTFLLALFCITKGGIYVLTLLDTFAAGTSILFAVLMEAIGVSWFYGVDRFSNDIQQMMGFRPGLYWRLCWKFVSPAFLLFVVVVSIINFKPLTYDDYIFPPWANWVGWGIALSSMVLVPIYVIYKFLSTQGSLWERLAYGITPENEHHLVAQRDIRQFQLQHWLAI
Experimental: as §1, §2, §3
(§4) Meanwhile, the Patio % values were compared, and in the case of the compounds of Examples 6, 9, 10, 19, 20, 22, 24, 28, 30, 31, 32, 33, 35, 41, 42, 48, 49, 51, 55, 56, 59, 61, 63, 64, 65, 66, 74 and 76 with excellent reuptake inhibitory effects on dopamine, norepinephrine and serotonin, the concentration at which the Ratio % is 50% was calculated using a total of 6 concentrations (1 nM, 5 nM, 10 nM, 50 nM, 100 nM, and 1 μM) and expressed as IC50. In addition, in the case of the compound of Comparative Example 1, IC50 was obtained by the same method as the Example Compounds.

[3] = biological target: T3, dopamine transporter (Homo sapiens, UniProt Q01959); assay: Dopamine reuptake inhibition in transporter-transfected HEK-293 cells ([3H]-DA); conditions: for Triple reuptake inhibition (Ratio %) DAT: compound 1 μM, 20-30 nM [3H]-DA, relative to control without compound (100%), lower = more inhibition; for IC50: concentration at which Ratio % is 50%, 6 concentrations 1 nM to 1 μM, read-out: Triple reuptake inhibition (IC50, μM) DAT
T3 construct: expressed in transfected cells; host or cells: HEK-293
T3 sequence (Q01959 whole entry): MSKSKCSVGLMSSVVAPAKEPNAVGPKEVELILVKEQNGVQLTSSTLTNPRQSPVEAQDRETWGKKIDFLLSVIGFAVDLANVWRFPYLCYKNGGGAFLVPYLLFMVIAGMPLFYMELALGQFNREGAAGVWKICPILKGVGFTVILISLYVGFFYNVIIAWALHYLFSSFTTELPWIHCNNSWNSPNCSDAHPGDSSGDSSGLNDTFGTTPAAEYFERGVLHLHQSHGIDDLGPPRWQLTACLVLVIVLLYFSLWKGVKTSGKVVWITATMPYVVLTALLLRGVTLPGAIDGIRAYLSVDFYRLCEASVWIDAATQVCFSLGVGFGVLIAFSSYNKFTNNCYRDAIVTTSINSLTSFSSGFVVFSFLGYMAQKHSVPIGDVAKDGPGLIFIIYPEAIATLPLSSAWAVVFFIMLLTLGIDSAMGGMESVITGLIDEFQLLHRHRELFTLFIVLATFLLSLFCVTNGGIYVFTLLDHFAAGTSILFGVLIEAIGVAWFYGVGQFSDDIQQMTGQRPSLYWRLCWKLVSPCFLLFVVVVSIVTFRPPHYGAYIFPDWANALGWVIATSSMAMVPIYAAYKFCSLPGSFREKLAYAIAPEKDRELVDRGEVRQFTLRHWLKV
Experimental: as §1, §3, §4

Row | SMILES | Triple reuptake inhibition (Ratio %) SERT [1] [%] | Triple reuptake inhibition (Ratio %) NET [2] [%] | Triple reuptake inhibition (Ratio %) DAT [3] [%] | IC50 [1] [µM] | IC50 [3] [µM] | IC50 [2] [µM]
1 | O=C(NCCN1CCN(c2cccc(C(F)(F)F)c2)CC1)c1ccc2cc(Br)ccc2c1 [Example 2] | 78.42 | 120.40 | 107.77 | – | – | –
2 | O=C(NCCN1CCN(c2ccc(Cl)c(Cl)c2)CC1)c1ccc2cc(Br)ccc2c1 [Example 3, 6-bromo-N-(2-(4-(3,4-dichlorophenyl)piperazin-1-yl)ethyl)-2-naphthamide] | 77.91 | 110.56 | 104.38 | – | – | –
3 | O=C(NCCN1CCN(c2cccc(Cl)c2Cl)CC1)c1ccc2cc(Br)ccc2c1 [Example 4, 6-bromo-N-(2-(4-(2,3-dichlorophenyl)piperazin-1-yl)ethyl)-2-naphthamide] | 73.53 | 121.24 | 108.51 | – | – | –
4 | O=C(NCCN1CCN(Cc2ccccc2)CC1)c1ccc2cc(Br)ccc2c1 [Example 5, N-(2-(4-benzylpiperazin-1-yl)ethyl)-6-bromo-2-naphthamide] | 76.90 | 94.24 | 96.26 | – | – | –
5 | O=C(NCCN1CCC(Cc2ccc(F)c(F)c2)CC1)c1ccc2cc(Br)ccc2c1 [Example 6, 6-bromo-N-(2-(4-(3,4-difluorobenzyl)piperidin-1-yl)ethyl)-2-naphthamide] | 73.84 | 34.16 | 57.66 | 14 | 3.93 | –
6 | O=C(NCCN1CCN(Cc2ccc(F)c(F)c2)CC1)c1ccc2cc(Br)ccc2c1 [Example 7, 6-bromo-N-(2-(4-(3,4-difluorobenzyl)piperazin-1-yl)ethyl)-2-naphthamide] | 103.19 | 60.83 | 82.42 | – | – | –
7 | O=C(NCCn1ccc(-c2ccc(F)cn2)n1)c1ccc2cc(Br)ccc2c1 [Example 8, 6-bromo-N-(2-(3-(5-fluoropyridin-2-yl)-1H-pyrazol-1-yl)ethyl)-2-naphthamide] | 86.83 | 95.78 | 97.06 | – | – | –
8 | O=C(NCCN1CCC(Cc2ccc(Cl)c(Cl)c2)CC1)c1ccc2cc(Br)ccc2c1 [Example 9, 6-bromo-N-(2-(4-(3,4-dichlorobenzyl)piperidin-1-yl)ethyl)-2-naphthamide] | 9.92 | 98.42 | 78.56 | 3.07 | 2.91 | –
9 | O=C(NCCN1CCC(Cc2ccc(Cl)c(Cl)c2)CC1)c1cc(Cl)cc(Cl)c1 [Example 10, 3,5-dichloro-N-(2-(4-(3,4-dichlorobenzyl)piperidin-1-yl)ethyl)benzamide] | 37.57 | 76.85 | 44.72 | – | 4.29 | 14.3
10 | O=C(NCCN1CCN(Cc2ccc(Cl)c(Cl)c2)CC1)c1ccc(Cl)c(Cl)c1 [Example 11, 3,4-dichloro-N-(2-(4-(3,4-dichlorobenzyl)piperazin-1-yl)ethyl)benzamide] | 63.40 | 82.25 | 75.29 | – | – | –
11 | O=C(NCCN1CCN(c2cccc(C(F)(F)F)c2)CC1)c1ccc(Cl)c(Cl)c1 [Example 12, 3,4-dichloro-N-(2-(4-(3-(trifluoromethyl)phenyl)piperazin-1-yl)ethyl)benzamide] | 93.46 | 94.42 | 103.97 | – | – | –
12 | O=C(NCCN1CCN(c2cccc(Cl)c2Cl)CC1)c1ccc(Cl)c(Cl)c1 [Example 13, 3,4-dichloro-N-(2-(4-(2,3-dichlorophenyl)piperazin-1-yl)ethyl)benzamide] | 89.10 | 94.42 | 106.09 | – | – | –
13 | O=C(NCCN1CCN(c2ccc(Cl)c(Cl)c2)CC1)c1ccc(Cl)c(Cl)c1 [Example 14, 3,4-dichloro-N-(2-(4-(3,4-dichlorphenyl)piperazin-1-yl)ethyl)benzamide] | 88.61 | 105.49 | 94.20 | – | – | –
14 | O=C(NCCN1CCN(Cc2ccccc2)CC1)c1ccc(Cl)c(Cl)c1 [Example 15, N-(2-(4-benzylpiperazin-1-yl)ethyl)-3,4-dichlorobenzamide] | 114.75 | 72.94 | 85.21 | – | – | –
15 | O=C(NCCN1CCN(Cc2ccc(F)c(F)c2)CC1)c1ccc(Cl)c(Cl)c1 [Example 16, 3,4-dichloro-N-(2-(4-(3,4-difluorobenzyl)piperazin-1-yl)ethyl)benzamide] | 113.34 | 82.44 | 85.54 | – | – | –
16 | O=C(NCCN1CCC(Cc2ccc(Cl)c(Cl)c2)CC1)c1ccc(Cl)c(Cl)c1 [Example 17, 3,4-dichloro-N-(2-(4-(3,4-dichlorobenzyl)piperidin-1-yl)ethyl)benzamide] | 4.81 | 88.67 | 66.05 | – | – | –
17 | O=C(NCCN1CCC(Cc2ccccc2)CC1)c1ccc(Cl)c(Cl)c1 [Example 18, N-(2-(4-benzylpiperidin-1-yl)ethyl)-3,4-dichlorobenzamide] | 47.45 | 67.88 | 68.93 | – | – | –
18 | O=C(NCCN1CCC(Cc2ccc(Cl)c(Cl)c2)CC1)c1cc2ccccc2[nH]1 [Example 19, N-(2-(4-(3,4-dichlorobenzyl)piperidin-1-yl)ethyl)-1H-indol-2-carboxamide] | 40.39 | 94.93 | 36.79 | 0.51 | 0.59 | > 10
19 | Cc1c(C(=O)NCCN2CCC(Cc3ccccc3)CC2)[nH]c2ccccc12 [Example 20, N-(2-(4-benzylpiperidin-1-yl)ethyl)-3-methyl-1H-indol-2-carboxamide] | 83.11 | 85.70 | 43.53 | – | 1.37 | –
20 | O=C(NCCN1CCN(c2cccc(C(F)(F)F)c2)CC1)c1cc2ccccc2[nH]1 [Example 21, N-(2-(4-(3-(trifluoromethyl)phenyl)piperazin-1-yl)ethyl)-1H-indol-2-carboxamide] | 86.98 | 97.95 | 94.30 | – | – | –
